The results in this text go back to ChEMBL document CHEMBL1139806, “Synthesis, anticancer, and cytotoxic activities of some mononuclear Ru(II) compounds” (Bioorg Med Chem, 2007).

The structures appear in SMILES notation.

As usually defined, the IC50 is the concentration needed to halve the response being measured. Read a low IC50 as inhibition by little substance.

Common to all, as to format: functional, cell-based
One test concerns L1210. Kind of test: Cytotoxicity against mouse L1210 cells.
Test [1] in a line: Cytotoxicity against human Molt 4/C8 cells. To be noted: Molt4/C8.
A further test concerns CCRF-CEM. Kind of test: Cytotoxicity against human CEM cells.

`NC(=S)N/N=C/c1ccccc1F`: the IC50 with L1210 came to 242 µM; in test [1] it was 140 µM; with CCRF-CEM, 166 µM.

In the case of `COc1ccc(/C=N/NC(N)=S)cc1`, the results for the IC50 (with L1210; in test [1]; in the test on CCRF-CEM) were 232 µM, 196 µM and 158 µM, respectively.

For `NC(=S)N/N=C/c1ccc(Cl)cc1`, the 50% inhibitory concentration (IC50) with L1210 was 284 µM; in test [1] it was 302 µM; in the test on CCRF-CEM, 194 µM.

Take `Oc1ccccc1/C=N/c1ccc(F)c(Cl)c1`: the values for the IC50 (in the test on L1210; in test [1]; in the test on CCRF-CEM) were 68 µM, 112 µM and 100 µM, respectively.

Turning to `NC(=S)/N=N/c1c(O)[nH]c2ccccc12`, the IC50 with L1210 turned out to be 382 µM; in test [1] it was 405 µM; in the test with CCRF-CEM, 249 µM.

Turning to `NC(=S)N/N=C/c1ccccc1Cl`, the IC50 in the test on L1210 was 84 µM; in test [1], 200 µM; in the test on CCRF-CEM, 98 µM.
